In BindingDB's records for doi:10.1021/jm001024j (Uppsala University, 2001):

What follows are compounds tested against T1, Dimer of Gag-Pol polyprotein [489-587] (Human immunodeficiency virus 1, UniProt P12497) (assay: Protease Inhibition Assay). Conditions: pH 5; 30 °C.
T1 construct: 489-587

Compared with `O=S1(=O)N(Cc2cccc(I)c2)[C@H](COc2ccccc2)[C@H](O)[C@@H](O)[C@@H](COc2ccccc2)N1Cc1cccc(I)c1`, `CC(=O)c1cccc(CN2[C@H](COc3ccccc3)[C@H](O)[C@@H](O)[C@@H](COc3ccccc3)N(Cc3cccc(C(C)=O)c3)S2(=O)=O)c1` is 1.6-fold lower in Ki: 93 nM for the first, 59 nM for the second. The second binds more tightly here.

Compared with `CC(N=O)c1cccc(CN2[C@H](COc3ccccc3)[C@H](O)[C@@H](O)[C@@H](COc3ccccc3)N(Cc3cccc(C(C)N=O)c3)S2(=O)=O)c1` (stereo not given in full), `CNC(=O)c1cccc(CN2[C@H](COc3ccccc3)[C@H](O)[C@@H](O)[C@@H](COc3ccccc3)N(Cc3cccc(C(=O)NC)c3)S2(=O)=O)c1` [(3R,4S,5S,6R)-2,7-Bis[3-(N-methylcarbamoyl)benzyl]-3,6-bis(phenoxymethyl)-4,5-dihydroxy-1,2,7-thiadiazepine 1,1-Dioxide] is 11-fold higher in Ki: 3.4 nM for the first, 39 nM for the second. The first binds more tightly here.

Going from `O=S1(=O)N(Cc2cccc(CCO)c2)[C@H](COc2ccccc2)[C@H](O)[C@@H](O)[C@@H](COc2ccccc2)N1Cc1cccc(CCO)c1` to `COC(Cc1cccc(CN2[C@H](COc3ccccc3)[C@H](O)[C@@H](O)[C@@H](COc3ccccc3)N(Cc3cccc(CC(OC)OC)c3)S2(=O)=O)c1)OC` [(3R,4S,5S,6R)-2,7-bis({[3-(2,2-dimethoxyethyl)phenyl]methyl})-4,5-dihydroxy-3,6-bis(phenoxymethyl)-1,2,7-thiadiazepane-1,1-dione], the Ki rises from 43 nM to 540 nM (13-fold). The first binds more tightly here.

First: O=S1(=O)N(Cc2ccc(CO)cc2)[C@H](COc2ccccc2)[C@H](O)[C@@H](O)[C@@H](COc2ccccc2)N1Cc1ccc(CO)cc1
Second: COC(=O)c1ccc(CN2[C@H](COc3ccccc3)[C@H](O)[C@@H](O)[C@@H](COc3ccccc3)N(Cc3ccc(C(=O)OC)cc3)S2(=O)=O)cc1
The Ki of the first is 27-fold lower: 3.1 nM for the first, 84 nM for the second. The first binds more tightly here.

First: O=C(CN1[C@H](COc2ccccc2)[C@H](O)[C@@H](O)[C@@H](COc2ccccc2)N(Cc2ccc(-c3cccs3)cc2)S1(=O)=O)Nc1nccs1 [2-[(3R,4S,5S,6R)-4,5-dihydroxy-1,1-dioxo-3,6-bis(phenoxymethyl)-7-{[4-(thiophen-2-yl)phenyl]methyl}-1,2,7-thiadiazepan-2-yl]-N-(1,3-thiazol-2-yl)acetamide]
Second: O=C(CN1[C@H](COc2ccccc2)[C@H](O)[C@@H](O)[C@@H](COc2ccccc2)N(Cc2cccc(-c3cccs3)c2)S1(=O)=O)Nc1nccs1 [(3R,4S,5S,6R)-3,6-Bis(phenoxymethyl)-4,5-dihydroxy-2-[(N-2-thiazolylcarbamoyl)methyl]-7-[3-(2-thienyl)benzyl]-1,2,7-thiadiazepine 1,1-Dioxide]
The Ki of the first is 13-fold higher: 1800 nM for the first, 140 nM for the second. The second binds more tightly here.

Going from `CNC(=O)CN1[C@H](COc2ccccc2)[C@H](O)[C@@H](O)[C@@H](COc2ccccc2)N(Cc2ccccc2)S1(=O)=O` [2-[(3R,4S,5S,6R)-7-benzyl-4,5-dihydroxy-1,1-dioxo-3,6-bis(phenoxymethyl)-1,2,7-thiadiazepan-2-yl]-N-methylacetamide] to `O=C(CN1[C@H](COc2ccccc2)[C@H](O)[C@@H](O)[C@@H](COc2ccccc2)N(Cc2ccccc2)S1(=O)=O)Nc1nccs1` [(3R,4S,5S,6R)-3,6-Bis(phenoxymethyl)-4,5-dihydroxy-7-benzyl-2-[(N-2-thiazolylcarbamoyl)methyl]-1,2,7-thiadiazepine 1,1-Dioxide], the Ki falls from 1400 nM to 350 nM (4-fold). The second binds more tightly here.

Going from `CNC(=O)CN1[C@H](COc2ccccc2)[C@H](O)[C@@H](O)[C@@H](COc2ccccc2)N(CC(=O)NC)S1(=O)=O` [(3R,4S,5S,6R)-2,7-Bis[(N-methylcarbamoyl)methyl]-3,6-bis(phenoxymethyl)-4,5-dihydroxy-1,2,7-thiadiazepine 1,1-Dioxide] to `CN1[C@H](COc2ccccc2)[C@H](O)[C@@H](O)[C@@H](COc2ccccc2)N(C)S1(=O)=O` [(3R,4S,5S,6R)-2,7-Bismethyl-3,6-bis(phenoxymethyl)-4,5-dihydroxy-1,2,7-thiadiazepine 1,1-Dioxide], the Ki falls from 25000 nM to 710 nM (35-fold).

First: O=S1(=O)N(Cc2ccccc2)[C@H](COc2ccccc2)[C@H](O)[C@@H](O)[C@@H](COc2ccccc2)N1Cc1ccc(-c2cccs2)cc1 [(3R,4S,5S,6R)-2-benzyl-4,5-dihydroxy-3,6-bis(phenoxymethyl)-7-{[4-(thiophen-2-yl)phenyl]methyl}-1,2,7-thiadiazepane-1,1-dione]
Second: O=S1(=O)N(Cc2ccc(-c3cccs3)cc2)[C@H](COc2ccccc2)[C@H](O)[C@@H](O)[C@@H](COc2ccccc2)N1Cc1cccc(-c2cccs2)c1 [(3R,4S,5S,6R)-4,5-dihydroxy-3,6-bis(phenoxymethyl)-7-{[3-(thiophen-2-yl)phenyl]methyl}-2-{[4-(thiophen-2-yl)phenyl]methyl}-1,2,7-thiadiazepane-1,1-dione]
The Ki of the first is 95-fold lower: 63 nM for the first, 6000 nM for the second. The first binds more tightly here.

Compared with `O=S1(=O)N(Cc2cccc(-c3cccs3)c2)[C@H](COc2ccccc2)[C@H](O)[C@@H](O)[C@@H](COc2ccccc2)N1Cc1cccc(-c2cccs2)c1` [(3R,4S,5S,6R)-3,6-Bis(phenoxymethyl)-2,7-bis[3-(2-thienyl)benzyl]-4,5-dihydroxy-1,2,7-thiadiazepine 1,1-Dioxide], `O=S1(=O)N(Cc2ccc(-c3cccs3)cc2)[C@H](COc2ccccc2)[C@H](O)[C@@H](O)[C@@H](COc2ccccc2)N1Cc1ccc(-c2cccs2)cc1` [(3R,4S,5S,6R)-4,5-dihydroxy-3,6-bis(phenoxymethyl)-2,7-bis({[4-(thiophen-2-yl)phenyl]methyl})-1,2,7-thiadiazepane-1,1-dione] is 2.4-fold lower in Ki: 2200 nM for the first, 920 nM for the second. The second binds more tightly here.

`O=C(CN1[C@H](COc2ccccc2)[C@H](O)[C@@H](O)[C@@H](COc2ccccc2)N(Cc2cccc(I)c2)S1(=O)=O)Nc1nccs1` [(3R,4S,5S,6R)-3,6-Bis(phenoxymethyl)-4,5-dihydroxy-7-(3-iodobenzyl)-2-[(N-2-thiazolylcarbamoyl)methyl]-1,2,7-thiadiazepine 1,1-Dioxide] and `CN1[C@H](COc2ccccc2)[C@H](O)[C@@H](O)[C@@H](COc2ccccc2)N(Cc2ccccc2)S1(=O)=O` [(3R,4S,5S,6R)-3,6-Bis(phenoxymethyl)-4,5-dihydroxy-7-methyl-2-benzyl-1,2,7-thiadiazepine 1,1-Dioxide] are the same in Ki: 510 nM for the first, 510 nM for the second.
